The results in this text go back to patent US20080249103A1, “Sirtuin polymorphisms and methods of use thereof” (Sirtris Pharmaceuticals, Inc., priority 2006, published 2008).

In data set [1] the test system is diet induced obese (DIO) mouse. The data set is described as follows: Diet Induced Obesity (DIO) mouse model. It is filed as in vivo, C57BL/6 mice. The settings on record: for plasma insulin: SRT1933 100 mg/kg, rosiglitazone 5 mg/kg once daily oral. The protocol: The vehicle used was 2% HPMC −0.2% DOSS. Individual mouse body weights were measured twice weekly. Every 2 weeks throughout the study, mice from each group were bled via the tail vein for determination of blood glucose and blood plasma insulin. After 1, 3 and 5 weeks of dosing, a fasted blood glucose measure was taken and after 5 weeks of treatment an IPGTT was conducted on all mice from each of the groups. After 9 weeks of treatment, an ITT was conducted and a rectal body temperature was taken on all mice from each of the groups. Statistical analysis was completed using the JMP program (Version 6). Data were analyzed by a one way ANOVA with comparison to control using a Dunnett's Test. A p value <0.05 indicated a significant difference between groups.

Data set [2] is described as follows: Plasma exposure after oral gavage in mice. It is filed as in vivo, C57BL/6 mice. The settings on record: 100 mg/kg once daily by oral gavage, each day. The protocol: The following example describes the in vivo effects of a novel SIRT1 activator. The compound was administered via oral gavage at the doses indicated in FIG. 2a in […] male mice, 18-22 grams (Wilmington, Mass. Charles River Labs), 3 mice per group and blood plasma was collected at 5, 30, 120 and 360 minute time points. The compound was administered in 2% HPMC+0.2% DOSS. Mice were sacrificed at proper time points using CO2 overdose (place in CO2 chamber 40 seconds before time point). Blood was collected in microtainer blood tubes with Lithium Heparin and plasma separator and frozen plasma was sent to Charles River Labs (CRL) for analysis. To determine oral bioavalability, the compound was administered into the tail vein at 0.1, 0.3 and 1.0 mg/kg doses in C57BL/6 male mice, 18-22 grams (Wilmington, Mass. Charles River Labs), 3 mice per group and blood plasma was collected at 5, 30, 120 and 360 minute time points. Compounds were administered in 10% ethanol/ 40% Polyethylene glycol/50% H2O for IV studies. Mice were sacrificed at proper time points using CO2 overdose (place in CO2 chamber 40 seconds before time point). Blood was collected and analyzed as described above.

The test system of data set [3] is citrate synthase activity (mitochondrial capacity). The data set is described as follows: Citrate synthase activity in tissues of treated DIO mice. It is filed as in vivo, C57BL/6 mice. The protocol: Citrate synthase (CS) activity in skeletal muscle (gastrocnemius) and white adipose tissue (epididymal) was determined after 11 weeks of treatment using the method described by Srere (Citrate synthase, Methods Enzymol. 1969, 13: 3-5) and Moyes et al. (Moyes CD, Mathieu-Costello 0A, Tsuchiya N, Filbum C, and Hansford RG. Mitochondrial biogenesis during cellular differentiation. Am. J. Physiol. 1997, 272 (Cell Physiol. 41): C1345-C1351.
Citrate Synthase is an enzyme of the Krebs cycle (also called […], TCA, or citric acid) cycle whose maximal activity (capacity) reflects mitochondrial oxidative capacity of the sample (Holloszy et al. 1970, Williams et al. 1986, Hood et al. 1989). […] Irrespective of this latter remark, changes in citrate synthase activity over time in a given individual reflect changes in tissue mitochondrial oxidative capacity. The five mice best representing the mean fasting blood glucose level of each group (DIO Vehicle and DIO SRT1933) were selected for this analysis. The tissues were lyzed in lx Extraction Buffer (20 mM N-2-hydroxyethylpiperazine-N′-2-2ethanesulfonic acid (HEPES), pH 7.2, 0.1% Triton X-100 and 1 mM EDTA with a polytron tissue homogenizer (OMNI International GLH) for 30 seconds at maximum speed (setting 6) on ice. A low-speed (13,000 rpm, microfuge) centrifugation step was then used to pellet big cell debris. The supernatant was used to assess citrate synthase activity. The samples are freeze-thawed 2 times to break the mitochondrial membrane and allow access to citrate synthase. Sample protein concentrations were determined according to the supplier's instructions, with Bio-Rad Protein Assay Dye Reagent Concentrate (cat#500-0006, […]) with Protein Standard I, bovine gamma globulin (cat#500-0005, […]) as standard. The citrate synthase activity assay was performed in a final total volume of 300 μl with 100 μg of protein per sample, measured in triplicate.
Citrate synthase catalyzes the reaction between acetyl coenzyme A (acetyl CoA) and oxaloacetic acid (OAA) to form citric acid. […]

In data set [4] the test system is diet induced obese (DIO) mouse. In words: Diet Induced Obesity (DIO) mouse model. It is filed as in vivo, C57BL/6 mice. The following applies: DIO mice.
A further data set has as its target T1, Human SIRT1 (Homo sapiens, UniProt Q96EB6).
T1 construct: hexa-histidine (N); made in house; host or cells: E. coli BL21(DE3)Star
T1 sequence (Q96EB6 1-747): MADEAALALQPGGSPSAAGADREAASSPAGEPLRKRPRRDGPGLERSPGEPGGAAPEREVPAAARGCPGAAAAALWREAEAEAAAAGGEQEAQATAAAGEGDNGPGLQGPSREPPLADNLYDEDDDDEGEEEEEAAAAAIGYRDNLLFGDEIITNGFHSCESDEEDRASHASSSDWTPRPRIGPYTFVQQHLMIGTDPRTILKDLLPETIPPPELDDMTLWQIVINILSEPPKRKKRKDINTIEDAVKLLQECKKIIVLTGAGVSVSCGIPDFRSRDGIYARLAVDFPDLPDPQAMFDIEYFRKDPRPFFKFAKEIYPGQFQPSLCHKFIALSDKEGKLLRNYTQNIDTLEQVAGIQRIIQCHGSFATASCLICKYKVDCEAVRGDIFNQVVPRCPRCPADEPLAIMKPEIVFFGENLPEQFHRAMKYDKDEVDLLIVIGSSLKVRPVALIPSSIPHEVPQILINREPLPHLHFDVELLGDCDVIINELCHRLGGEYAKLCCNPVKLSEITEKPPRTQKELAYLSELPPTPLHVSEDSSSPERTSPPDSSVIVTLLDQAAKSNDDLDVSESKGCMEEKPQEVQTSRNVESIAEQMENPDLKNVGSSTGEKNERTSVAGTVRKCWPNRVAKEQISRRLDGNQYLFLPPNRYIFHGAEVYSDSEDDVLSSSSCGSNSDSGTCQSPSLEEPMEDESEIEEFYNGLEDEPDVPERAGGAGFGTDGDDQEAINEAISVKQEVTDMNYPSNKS
In words: SIRT1 mass spectrometry deacetylase assay. It is filed as biochemical. From the text:
The following example describes methods for the identification and characterization of Sirt1 activators. Human SIRT1 is expressed from the pSIRT1FL vector which places expression under the control of the T7 promoter. The protein was expressed in E. coli BL21(DE3)Star as an N-terminal fusion to a hexa-histidine affinity tag. The expressed protein was purified by Ni^2+-chelate chromatography. The eluted protein was then purified by size exclusion chromatography followed by ion exchange. The resulting protein was typically >95% pure as assessed by SDS-PAGE analysis. The mass spectrometry based assay utilizes a peptide having 20 amino acid residues as follows: Ac-Glu-Glu-Lys(Biotin)-[…]Ac)-Nle-Ser-Thr-Glu-Gly-Lys(5TMR)-Glu-Glu-NH2 (SEQ ID NO:2) wherein K(Ac) is an acetylated lysine residue and Nle is a norleucine. The peptide is labeled with the fluorophore 5TMR (excitation 540 nm/emission 580 nm) at the C-terminus for use in the FP assay described above. The sequence of the peptide substrate is based on p53 with several modifications.
The mass spectrometry assay was conducted as follows: 0.5 μM peptide substrate and 120 μM βNAD^+ was incubated with 10 nM SIRT1 for 25 minutes at 25° C. in a reaction buffer (50 mM Tris-acetate pH 8, 137 mM NaCl, 2.7 mM KCl, 1 mM MgCl2, 5 mM DTT, 0.05% BSA). Test compounds were added to the reaction or vehicle control, DMSO. After the incubation with SIRT1, 10% formic acid was added to stop the reaction. Determination of the mass of the substrate peptide allows for precise determination of the degree of acetylation (i.e. starting material) as compared to deacetylated peptide (product).
The activity of an exemplary compound against SIRT1 enzyme was profiled using a mass spectrometry readout. In this assay the conversion of acetylated peptide substrate to deacetylated peptide product is tracked by monitoring the change in mass ([…]) upon loss of the acetyl group. […]

Read-outs that look alike come from different tables or passages of the source. Where only a bound is given, the exact number is not on record here.

On to `O=C(Nc1ccccc1-c1cn2c(CN3CCNCC3)csc2n1)c1cnc2ccccc2n1` [SRT1933], for which, in data set [1] (DIO mice, 100 mg/kg once daily oral, by week 2, maintained over 10 week period), the “nonfasting blood glucose levels” value is recorded as “normalized”. In addition, the “insulin sensitivity relative to vehicle assessed by ITT” value in data set [1] (DIO mice, ITT after 9 weeks of treatment) was “improvement in insulin sensitivity”. For the same compound, in data set [1] (DIO mice, once daily oral dosing), the “fasting blood glucose levels” value is reported as “normalized”. Further, the plasma insulin in data set [1] (DIO mice) was found to be 2.1 ± 0.1 ng/mL. Also, in data set [1] (SRT1933 treated groups (FIG. 2f)), the body temperature result is recorded as “decreased”. The “lowering of core body temperature” value in data set [1] (both DIO mice and normal chow fed mice) is approximately 1 °C. In addition, the “effect on insulin levels” value in data set [1] (mice fed a normal chow diet, over the course of the study) was “did not have a significant effect”. Also, the “duration of exposure above EC1.5” value in data set [2] is reported as “at least 16 hours”. Further, in data set [3] (gastrocnemius muscle, DIO mice, after 11 weeks of treatment), the “increase in citrate synthase activity” value turned out to be 15%. In data set [3] (n=5, after 11 weeks (FIG. 2g)), the “citrate synthase activity in adipose tissue” value is “trend” and the “mitochondrial capacity (citrate synthase activity) in skeletal muscle” value is “significant increase”. Also, the “glucose tolerance in an OGTT relative to vehicle” value in data set [4] was “improved glucose tolerance”. Besides, in data set [4] (after 5 weeks of treatment, SRT1933 100 mg/kg, rosiglitazone 5 mg/kg once daily oral), the “glucose excursion in OGTT (AUC)” value turned out to be 462 ± 25 mg·h/dL. Besides, the Emax at Human SIRT1 (at the highest doses of compound tested, read-out: maximum activation) was more than 900%. At Human SIRT1 (read-out: EC1.5 (concentration of compound required to increase enzyme activity by 50%), mass spectrometry readout, 10 nM SIRT1, 0.5 μM peptide substrate, 120 μM βNAD+), the EC1.5 came out at 160 nM. Also, the EC1.5 at Human SIRT1 (read-out: EC1.5, as quoted in legend of FIG. 2a) came to 440 nM.
For `CN(CCOc1ccc(CC2SC(=O)NC2=O)cc1)c1ccccn1` (centres unmarked) [rosiglitazone, reference compound], the plasma insulin in data set [1] (DIO mice) was determined as 0.9 ± 0.1 ng/mL.
